Assays:
[1] = tested on: Herpes simplex virus Type II strain 333; assay: Antiviral activity in guinea pigs infected with Herpes simplex virus Type II (lesion inhibition); type: in vivo; conditions: oral once daily for four days
Source text: Female Hartley guinea pigs weighing 200 to 250 g are anesthetized with methoxyflurane (available under the […] from Pitman-Moore, Inc., Washington Crossing, N.J.), after which the vaginal area is swabbed with a dry cotton swab. The guinea pigs are then infected intravaginally with a cotton swab saturated with Herpes simplex virus Type II strain 333 (1×10^5 plaque forming units/mL). Guinea pigs are assigned to groups of 7 animals; one group for each treatment and one to serve as a control (vehicle treated). The compounds of the invention are formulated in water containing 5% Tween 80 (a polyoxyethylene sorbitan monooleate available from Aldrich Chemical Company, Inc., Milwaukee, Wis.). The, guinea pigs are treated orally once daily for four consecutive days starting 24 hours after infection. Antiviral activity is evaluated by comparing lesion development in compound-treated versus vehicle-treated guinea pigs. […] The maximum lesion score of each guinea pig is used to calculate the percentage lesion inhibition. The percentage lesion inhibition is calculated as follows: […]

[2] = tested on: interferon-α; assay: Interferon-α induction in human cells, PBM; type: cell-based; conditions: 24 hours
[3] = tested on: interferon-α; assay: Interferon-α induction in human cells, diluted whole blood; type: cell-based; conditions: 24 hours
[4] = tested on: interferon; assay: Interferon induction in mice; type: in vivo; conditions: mouse serum
Outline: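 Interferon titres expressed as α/β reference units/mL relative to mouse MU-1-IF standard, "<" denoting undetectable. Pooled serum came from mouse groups bled at 1, 2 or 4 h, frozen at −70° C, analysed like human-cell samples.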

[5] = tested on: vesicular stomatitis virus (VSV); assay: microbe, parasite or virus in culture; type: cell-based; conditions: for log reduction at 0.1 µg/mL / log reduction at 0.5 µg/mL / log reduction at 1 µg/mL: Vesicular stomatitis virus, read-out: VSV Yield Inhibition; for VSV Yield Inhibition: log10 (control VSV yield/experimental VSV yield)

| Structure (SMILES) | Interferon-α induction ([2]; dose concentration 0.10 μg/mL) | Interferon-α induction ([2]; dose concentration 0.50 μg/mL) | Interferon-α induction ([2]; dose concentration 1.0 μg/mL) | Interferon-α induction ([2]; dose concentration 5.0 μg/mL) | Interferon induction in mice ([4]; oral 0.3 mg/kg, 1 hr) | Interferon induction in mice ([4]; oral 0.3 mg/kg, 2 hr) | Interferon induction in mice ([4]; oral 0.3 mg/kg, 4 hr) | Interferon induction in mice ([4]; oral 1 mg/kg, 1 hr) | Interferon induction in mice ([4]; oral 1 mg/kg, 2 hr) | Interferon induction in mice ([4]; oral 1 mg/kg, 4 hr) | Interferon induction in mice ([4]; oral 3 mg/kg, 1 hr) | Interferon induction in mice ([4]; oral 3 mg/kg, 2 hr) | Interferon induction in mice ([4]; oral 3 mg/kg, 4 hr) | Interferon induction in mice ([4]; oral 10 mg/kg, 1 hr) | Interferon induction in mice ([4]; oral 10 mg/kg, 2 hr) | Interferon induction in mice ([4]; oral 10 mg/kg, 4 hr) | log reduction at 0.1 µg/mL [5] | log reduction at 0.5 µg/mL [5] | log reduction at 1 µg/mL [5] | also measured |
| --- | --- | --- | --- | --- | --- | --- | --- | --- | --- | --- | --- | --- | --- | --- | --- | --- | --- | --- | --- | --- |
| CC(C)Cn1c(CCl)nc2c(N)nc3ccccc3c21.Cl [Example 10, 2-Chloromethyl-1-(2-methylpropyl)-1H-imidazo[4,5-c]quinolin-4-amine Hydrochloride] | 140 α Reference Units/mL | 750 α Reference Units/mL | 750 α Reference Units/mL | 190 α Reference Units/mL | <120 Reference Units/mL | <120 Reference Units/mL | <120 Reference Units/mL | <120 Reference Units/mL | <120 Reference Units/mL | <120 Reference Units/mL | <120 Reference Units/mL | <120 Reference Units/mL | <120 Reference Units/mL | <120 Reference Units/mL | <120 Reference Units/mL | 600 Reference Units/mL |  |  |  | % Lesion Inhibition ([1]; dose 0.5 mg/kg): 29%; Interferon-α induction ([2]; dose concentration 0.01 μg/mL): <1.3 α Reference Units/mL; Interferon-α induction ([2]; dose concentration 0.05 μg/mL): 28 α Reference Units/mL; Interferon-α induction ([3]; dose concentration 0.10 μg/mL): <1.5 α Reference Units/mL; Interferon-α induction ([3]; dose concentration 0.50 μg/mL): 96 α Reference Units/mL; Interferon-α induction ([3]; dose concentration 1.0 μg/mL): 120 α Reference Units/mL; Interferon-α induction ([3]; dose concentration 5.0 μg/mL): 120 α Reference Units/mL |
| COCc1nc2c(N)nc3ccccc3c2n1CC(C)(C)O [Example 96, 4-Amino-α,α-dimethyl-2-methoxymethyl-1H-imidazo[4,5-c]quinoline-1-ethanol] | 1200 α Reference Units/mL | 460 α Reference Units/mL | 1000 α Reference Units/mL | 900 α Reference Units/mL | 2900 Reference Units/mL | 3400 Reference Units/mL | 620 Reference Units/mL | 3200 Reference Units/mL | 5000 Reference Units/mL | 1100 Reference Units/mL | 3000 Reference Units/mL | 10000 Reference Units/mL | 960 Reference Units/mL | 2900 Reference Units/mL | 4700 Reference Units/mL | ˜350 Reference Units/mL | 6 | 5 | 5 | Interferon-α induction ([2]; dose concentration 0.01 μg/mL): <6.4 α Reference Units/mL; Interferon-α induction ([2]; dose concentration 0.05 μg/mL): 44 α Reference Units/mL |
| CCCCC(OC)c1nc2c(N)nc3ccccc3c2n1CC(C)C (centres unmarked) [Example 61, 2-(1-Methoxypentyl)-1-(2-methylproyl) -1H-imidazo[4,5-c]quinolin-4-amine] | 64 α Reference Units/mL | 1300 α Reference Units/mL | 330 α Reference Units/mL | 330 α Reference Units/mL | <56 Reference Units/mL | <56 Reference Units/mL | <56 Reference Units/mL | 120 Reference Units/mL | 220 Reference Units/mL | 97 Reference Units/mL | 290 Reference Units/mL | 500 Reference Units/mL | 120 Reference Units/mL | 290 Reference Units/mL | 1100 Reference Units/mL | 160 Reference Units/mL |  |  |  | VSV Yield Inhibition ([5]; dose concentration 0.1 μg/mL): 5 log10; VSV Yield Inhibition ([5]; dose concentration 0.5 μg/mL): 7 log10; VSV Yield Inhibition ([5]; dose concentration 1.0 μg/mL): 5 log10 |
| CCOCc1nc2c(N)nc3cc(Cl)ccc3c2n1CC(C)(C)O [Example 85, 4-Amino-7-chloro-α,α-dimethyl-2-ethoxymethyl-1H-imidazo[4,5-c]quinoline-1-ethanol] | 86 α Reference Units/mL | 100 α Reference Units/mL | 220 α Reference Units/mL | 230 α Reference Units/mL | 670 Reference Units/mL | 670 Reference Units/mL | <250 Reference Units/mL | ˜980 Reference Units/mL | 3900 Reference Units/mL | ≦330 Reference Units/mL | 1500 Reference Units/mL | 4300 Reference Units/mL | ˜430 Reference Units/mL | 2200 Reference Units/mL | 5700 Reference Units/mL | ˜570 Reference Units/mL | 5 | 5 | 5 |  |
| CCOCc1nc2c(N)nc3ccccc3c2n1CCCOC [Example 44, 2-Ethoxymethyl-1-(3-methoxypropyl)-1H-imidazo[4,5-c]quinolin-4-amine] | 3000 α Reference Units/mL | 430 α Reference Units/mL | 430 α Reference Units/mL | 760 α Reference Units/mL | ˜570 Reference Units/mL | 510 Reference Units/mL | <260 Reference Units/mL | 990 Reference Units/mL | <260 Reference Units/mL | <260 Reference Units/mL | 1000 Reference Units/mL | 1500 Reference Units/mL | <260 Reference Units/mL | 1800 Reference Units/mL | 1600 Reference Units/mL | 790 Reference Units/mL | 3 | 4 | 7 |  |
| CC(C)Cn1c(C(C)(C)O)nc2c(N)nc3ccccc3c21 [Example 23, 4-Amino-α,α-dimethyl-1-(2-methylpropyl)-1H-imidazo[4,5-c]quinoline-2-methanol] |  |  |  |  |  |  |  |  |  |  |  |  |  |  |  |  |  |  |  | Interferon-α induction ([3]; dose concentration 0.10 μg/mL): <1.8 α Reference Units/mL; Interferon-α induction ([3]; dose concentration 0.50 μg/mL): <1.8 α Reference Units/mL; Interferon-α induction ([3]; dose concentration 1.0 μg/mL): 84 α Reference Units/mL; Interferon-α induction ([3]; dose concentration 5.0 μg/mL): 250 α Reference Units/mL; Interferon induction in mice ([4]; oral 30 mg/kg, 1 hr): 1200 Reference Units/mL; Interferon induction in mice ([4]; oral 30 mg/kg, 2 hr): 1200 Reference Units/mL; Interferon induction in mice ([4]; oral 30 mg/kg, 4 hr): 140 Reference Units/mL |
| CC(C)Cn1c(CN2CCCC2)nc2c(N)nc3ccccc3c21 [Example 13, 1-(2-Methylpropyl)-2-pyrrolidinomethyl-1H-imidazo[4,5-c]quinolin-4-amine] | <1.9 α Reference Units/mL | 10 α Reference Units/mL | 10 α Reference Units/mL | 4 α Reference Units/mL | <59 Reference Units/mL | ≦130 Reference Units/mL | <59 Reference Units/mL | 130 Reference Units/mL | 530 Reference Units/mL | ≦100 Reference Units/mL | 230 Reference Units/mL | 400 Reference Units/mL | 130 Reference Units/mL | 700 Reference Units/mL | 1200 Reference Units/mL | 400 Reference Units/mL |  |  |  | % Lesion Inhibition ([1]; dose 2 mg/kg): 67% |

From US6465654B2, “Process for preparing 1-substituted, 2-substituted 1H-imidazo[4, 5-c]quinoline-4-amines” (3M Innovative Properties Company, priority 1991, dated 2002)
